Assay results from patent US12741974B2, “Compounds constituting C20-modified salinomycin derivatives, a method for obtaining the same, a composition containing the same, a use of said compounds and a method for obtaining an intermediate product” (FILECLO SP. Z O.O., priority 2020, dated 2021).

Legend:
[1] = system: MV-4-11 (human biphenotypic leukaemia); test: In vitro cytotoxicity test, MTT assay, 72 h incubation with compound; type: cell-based; details: for IC50: MV-4-11 human biphenotypic leukaemia, MTT, 72 h; for SI MV-4-11: selectivity coefficient, BALB/3T3 versus MV-4-11
Procedure: (§1) In vitro cytotoxicity tests were performed according to the procedure described below. […] The solvent for further dilutions was a culture medium.
(§2) The experiments were repeated at least 3 times.
After 4 hours of incubation at 37° C., 80 μL of lysis buffer was added to each well.

[2] = system: BALB/3T3 (normal murine fibroblasts); test: In vitro cytotoxicity test on normal cells, SRB assay, 72 h incubation with compound; type: cell-based; details: read-out: IC50 BALB/3T3
Procedure: (§3) Normal murine BALB/3T3 fibroblasts were also used in the tests for determining the selectivity coefficients of the compounds used in the assays.
as §1, §2

B16-F0 (murine melanoma) = test: In vitro cytotoxicity test, SRB assay, 72 h incubation with compound; type: cell-based; details: for IC50: B16-F0 murine melanoma, SRB, 72 h; for SI B16-F0: selectivity coefficient, BALB/3T3 versus B16-F0
Procedure: as §1, §2

[3] = system: LoVo/DX (drug-resistant human colon cancer); test: as above; type: cell-based; details: for IC50: LoVo/DX drug-resistant human colon cancer, SRB, 72 h; for RI: drug resistance coefficient, LoVo/DX versus LoVo, 4320 min; for SI LoVo/DX: selectivity coefficient, BALB/3T3 versus LoVo/DX
Procedure: as §1, §2

[4] = system: MCF-7 (human breast cancer); test: as above; type: cell-based; details: for IC50: MCF-7 human breast cancer, SRB, 72 h; for SI MCF-7: selectivity coefficient, BALB/3T3 versus MCF-7
Procedure: as §1, §2

Hs294T (human melanoma) = test: as above; type: cell-based; details: for IC50: Hs294T human melanoma, SRB, 72 h; for SI Hs294T: selectivity coefficient, BALB/3T3 versus Hs294T
Procedure: as §1, §2

[5] = system: LoVo (drug-sensitive human colon cancer); test: as above; type: cell-based; details: for IC50: LoVo drug-sensitive human colon cancer, SRB, 72 h; for SI LoVo: selectivity coefficient, BALB/3T3 versus LoVo
Procedure: as §1, §2

[6] = In vitro cytotoxicity test on normal cells, SRB assay, 72 h incubation with compound; type: cell-based; details: mouse, balb/3t3 cells, normal murine fibroblasts, read-out: IC50 BALB/3T3
Procedure: as §3, §1, §2

[7] = system: advanced head, neck, breast and ovarian cancer; details: small group of patients with advanced head; cited from earlier work

Row | SMILES | IC50 [1] [nM] | SI MV-4-11 [1] | CC50 [2] [nM] | IC50 (B16-F0 (murine melanoma)) [nM] | SI B16-F0 (B16-F0 (murine melanoma)) | IC50 [3] [nM] | RI [3] | SI LoVo/DX [3] | IC50 [4] [nM] | SI MCF-7 [4] | IC50 (Hs294T (human melanoma)) [nM] | SI Hs294T (Hs294T (human melanoma)) | IC50 [5] [nM] | SI LoVo [5] | also measured
1 | CC[C@@H](C(=O)[C@@H](C)[C@@H](O)[C@H](C)[C@@H]1O[C@@H]([C@@H](CC)C(=O)O)CC[C@@H]1C)[C@H]1O[C@]2(C=C[C@H](NC(=O)CCCCl)[C@]3(CC[C@@](C)([C@H]4CC[C@](O)(CC)[C@H](C)O4)O3)O2)[C@H](C)C[C@@H]1C [(12 epi), reference compound] | 2500 | 2.9 | 7300 | – | – | – | – | – | – | – | – | – | – | – | –
2 | CC[C@@H](C(=O)[C@@H](C)[C@@H](O)[C@H](C)[C@@H]1O[C@@H]([C@@H](CC)C(=O)O)CC[C@@H]1C)[C@H]1O[C@]2(C=C[C@H](NC(=O)c3ccccc3)[C@]3(CC[C@@](C)([C@H]4CC[C@](O)(CC)[C@H](C)O4)O3)O2)[C@H](C)C[C@@H]1C [(15 epi), reference compound] | 33 | 30 | 1000 | 400 | 2.5 | 630 | 3 | 1.6 | 1100 | 0.9 | 80 | 12.5 | 200 | 5 | –
3 | CC[C@@H](C(=O)[C@@H](C)[C@@H](O)[C@H](C)[C@@H]1O[C@@H]([C@@H](CC)C(=O)O)CC[C@@H]1C)[C@H]1O[C@]2(C=C[C@H](NC(=O)C(C)C)[C@]3(CC[C@@](C)([C@H]4CC[C@](O)(CC)[C@H](C)O4)O3)O2)[C@H](C)C[C@@H]1C [(10 epi), reference compound] | 400 | 9.5 | 3800 | – | – | – | – | – | – | – | 4000 | 0.95 | – | – | –
4 | CCOC(=O)N[C@H]1C=C[C@]2(O[C@H]([C@@H](CC)C(=O)[C@@H](C)[C@@H](O)[C@H](C)[C@@H]3O[C@@H]([C@@H](CC)C(=O)O)CC[C@@H]3C)[C@@H](C)C[C@H]2C)O[C@@]12CC[C@@](C)([C@H]1CC[C@](O)(CC)[C@H](C)O1)O2 [(19 epi), reference compound] | 46 | 22 | 1000 | 330 | 3 | 700 | 3 | 1.4 | 1000 | 1 | 60 | 16 | 240 | 4.1 | –
5 | CC[C@@H](C(=O)[C@@H](C)[C@@H](O)[C@H](C)[C@@H]1O[C@@H]([C@@H](CC)C(=O)O)CC[C@@H]1C)[C@H]1O[C@]2(C=C[C@@H](O)[C@]3(CC[C@@](C)([C@H]4CC[C@](O)(CC)[C@H](C)O4)O3)O2)[C@H](C)C[C@@H]1C [salinomycin] | – | 29.7 | – | – | 3.3 | 480 | 2.3 | 4.3 | – | 1.0 | – | 3.7 | 210 | 9.9 | IC50 ([1]; MV4-11): 70 nM; CC50 at 72 h [6]: 2080 nM; IC50 (B16-F0 (murine melanoma); Mus musculus, B16F0): 630 nM; IC50 ([4]; MCF7): 2100 nM; IC50 (Hs294T (human melanoma); Hs 294T): 560 nM; effect on cancer progression in patients [7]: inhibition of cancer progression; side effects in patients [7]: no acute side effects
